Source: patent US5698547A, “Cephalosporin antibiotics” (Microcide Pharmaceuticals, Inc., priority 1995, dated 1997)
Converted amounts (≈) assume the structure as drawn. Where a name gives a salt, the structure may show the parent alone.

Key:
[1] = tested on: S. aureus Col (Meth^R) (lac^-); experiment: MIC by agar dilution, S. aureus Col (Meth^R) (lac^-); format: cell-based; conditions: Staphylococcus aureus; agar dilution; S. aureus Col (Meth^R) (lac^-); read-out: MIC
Procedure, shortened: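 Agar dilution per NCCLS (1991): two-fold dilutions from 128 μg/mL down to ≤0.25 μg/mL in Mueller-Hinton agar, each level in duplicate. Spots of about 10^4 cfu of log-phase culture; 16-20 h at 35°-36° C. MIC in μg/ml is the lowest concentration inhibiting growth.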

[2] = tested on: methicillin-susceptible S. aureus strain ATCC 13709; experiment: murine model for lethal bacteremic peritonitis; format: in vivo, female Swiss-Webster mice; conditions: subcutaneous, 72 h
Protocol: Groups of 5 female Swiss-Webster mice (Simonsen, Gilroy, Calif.) each are challenged by the intraperitoneal (IP) route with tenfold increments of a bacterial inoculum. This permits calculation of the mean lethal dose (LD50) and the LD100. For preliminary evaluation of a new antibiotic, mice are challenged IP with an LD100 titer of bacteria. In two equal doses administered at the time of bacterial challenge and 2 hours later, groups of 10 mice each are treated subcutaneously with two-fold increments of the test drug and an antibiotic of known efficacy in mice and humans (i.e., positive control). Mice are observed for 72 h. Those alive at 72 h are considered long term survivors. The total drug dose in mg/kg that protects 50% of mice in a group from death is termed the mean protective dose (PD50). PD50 s are similarly determined for several pathogens. The quantitative endpoints for the new drug are then compared with those obtained with reference antibiotics.
Six ten-fold dilutions of inoculum suspended in 0.5 mL of sterilized 7% hog gastric mucin (Sigma) are injected IP in groups of 5 mice each. A control group of 5 mice receive mucin alone. Mice are observed for 72 h. Those alive at 72 h are considered long term survivors. The mean lethal dose (LD50) and 100% lethal dose (LD100) are determined by the probit test.
For antibiotic efficacy studies, mice are challenged IP with bacterial titers that will afford an LD100 for the test strain. In two equal doses administered at the time of bacterial challenge and 2 hours later, groups of 10 mice each are treated by the subcutaneous route (SC) with twofold increments of the test antibiotic; another group is treated similarly with a reference antibiotic of known efficacy in animals and man. Drug doses can range from 0.01 to 512 mg/kg. If the drug is poorly soluble, Tween 20 or propylene glycol will be employed to solubilize the drug. Animals are observed for 72 h. The 50% protective dose (PD50) is calculated in mg/kg by the probit method. The PD50 is the same as the 50% effective dose (ED50) and the 50% curative dose (CD50). Samples of blood from the hearts of all animals that die and from half the mice that survive are cultured on brain-heart infusion agar. Animals that received a protective dosage of the test drug will be alive at 72 h, although they may appear moderately ill to very ill during the observation period. […] Most of these mice will die within 6 to 48 h. Those alive at 72 h will be considered long term survivors.
(Compound numbers correspond to those in MIC tables; data
reported for challenge with methicillin-susceptible S. aureus

With `CO/N=C(\C(=O)N[C@@H]1C(=O)N2C(C(=O)O)=C(COC(C)=O)CS[C@H]12)c1csc(N)n1` [Cefotaxime, (7R)-3-Acetoxymethyl-7-[(Z)-2-(aminothiazol-4-yl)-2-(methoxyimino)acetamido]-3-cephem-4-carboxylic acid, reference compound] the MIC [1] was greater than 32 µg/mL, the Mortality ([2]; dose 2.5 mg/kg) was 8/10 and the Mortality ([2]; dose 5 mg/kg) was 5/10. For the same compound, the Mortality ([2]; dose 10 mg/kg) was 3/10, the Mortality ([2]; dose 20 mg/kg) was 4/10 and the Mortality ([2]; dose 40 mg/kg) was 1/10.
`N#CCC(=O)N[C@@H]1C(=O)N2C(C(=O)O)=C(Sc3ccccc3I)CS[C@H]12` [Cmpd 17, (7R)-7-[(Cyanoacetyl)amino]-3-(o-iodophenylthio)-3-cephem-4-carboxylic acid] was tested, and the MIC [1] was 2 µg/mL (≈ 3.99 µM), the Mortality ([2]; dose 2 mg/kg) was 8/10 and the Mortality ([2]; dose 4 mg/kg) was 5/10. The Mortality ([2]; dose 8 mg/kg) was 0/10 and the Mortality ([2]; dose 16 mg/kg) was 0/10.
For `N#Cc1ccccc1SC1=C(C(=O)O)N2C(=O)[C@@H](NC(=O)Cc3ccccc3)[C@H]2SC1` [Cmpd 41, (7R)-7-[(Phenylacetyl)amino]-3-(2-cyanophenylthio)-3-cephem-4-carboxylic acid], the MIC [1] was 1 µg/mL (≈ 2.21 µM), the Mortality ([2]; dose 0.625 mg/kg) was 8/10 and the Mortality ([2]; dose 1.25 mg/kg) was 6/10. The Mortality ([2]; dose 2.5 mg/kg) was 0/10, the Mortality ([2]; dose 5 mg/kg) was 0/10 and the Mortality ([2]; dose 10 mg/kg) was 0/10.
For `O=C(Cc1ccccc1)N[C@@H]1C(=O)N2C(C(=O)O)=C(Sc3cccnc3-c3ccccc3)CS[C@H]12` [Cmpd 81, (7R)-7-[(Phenylacetyl)amino]-3-(2-phenylpyridin-3-ylthio)-3-cephem-4-carboxylic acid], the MIC [1] was 2 µg/mL (≈ 3.97 µM), the Mortality ([2]; dose 2 mg/kg) was 8/10 and the Mortality ([2]; dose 4 mg/kg) was 10/10. For the same compound, the Mortality ([2]; dose 8 mg/kg) was 5/10 and the Mortality ([2]; dose 16 mg/kg) was 2/10.
With `O=C(Cc1ccccc1)N[C@@H]1C(=O)N2C(C(=O)O)=C(Sc3ccnn3-c3ccccc3)CS[C@H]12` [Cmpd 87, (7R)-7-[(Phenylacetyl)amino]-3-(1-N-phenylpyrazol-5-ylthio)-3-cephem-4-carboxylic acid] the MIC [1] was 1 µg/mL (≈ 2.03 µM), the Mortality ([2]; dose 2 mg/kg) was 4/10 and the Mortality ([2]; dose 4 mg/kg) was 3/10. For the same compound, the Mortality ([2]; dose 8 mg/kg) was 0/10 and the Mortality ([2]; dose 16 mg/kg) was 0/10.
With `N#CCC(=O)N[C@@H]1C(=O)N2C(C(=O)O)=C(Sc3ccnn3-c3ccccc3)CS[C@H]12` [Cmpd 88, (7R)-7-[(Cyanoacetyl)amino]-3-(1-N-phenylpyrazol-5-ylthio)-3-cephem-4-carboxylic acid] the MIC [1] was 4 µg/mL (≈ 9.06 µM), the Mortality ([2]; dose 0.625 mg/kg) was 2/10 and the Mortality ([2]; dose 1.25 mg/kg) was 1/10. For the same compound, the Mortality ([2]; dose 2.5 mg/kg) was 0/10, the Mortality ([2]; dose 5 mg/kg) was 0/10 and the Mortality ([2]; dose 10 mg/kg) was 0/10.
For `Nc1nc(/C(=N/OC2CCCC2)C(=O)N[C@@H]2C(=O)N3C(C(=O)O)=C(Sc4ccnn4-c4ccccc4)CS[C@H]23)cs1` [Cmpd 89, (7R)-7-[(Z)-2-(aminothiazol-4-yl)-2-(cyclopentyloxyimino)acetamido]-3-(1-N-phenylpyrazol-5-ylthio)-3-cephem-4-carboxylic acid], the MIC [1] was 2 µg/mL (≈ 3.27 µM), the Mortality ([2]; dose 0.625 mg/kg) was 9/10 and the Mortality ([2]; dose 1.25 mg/kg) was 9/10. For the same compound, the Mortality ([2]; dose 2.5 mg/kg) was 9/10, the Mortality ([2]; dose 5 mg/kg) was 8/10 and the Mortality ([2]; dose 10 mg/kg) was 8/10.
Compound `CCCCCC(=O)N[C@@H]1C(=O)N2C(C(=O)O)=C(Sc3ccnn3-c3ccccc3)CS[C@H]12` [Cmpd 109, (7R)-7-[(hexanoyl)amino]-3-(1-N-phenylpyrazol-5-ylthio)-3-cephem-4-carboxylic acid] has an MIC [1] of 4 µg/mL (≈ 8.46 µM).
`O=C(Cc1ccco1)N[C@@H]1C(=O)N2C(C(=O)O)=C(Sc3ccnn3-c3ccccc3)CS[C@H]12` [Cmpd 111, (7R)-7-[(2-furylacetyl)amino]-3-(1-N-phenylpyrazol-5-ylthio)-3-cephem-4-carboxylic acid] was tested, and the MIC [1] was 8 µg/mL (≈ 16.6 µM).
With `O=C(Cc1ccccc1)N[C@@H]1C(=O)N2C(C(=O)O)=C(Sc3ccnn3-c3cccc([N+](=O)[O-])c3)CS[C@H]12` [Cmpd 113, (7R)-7-[(Phenylacetyl)amino]-3-(1-N-(3-nitrophenyl)pyrazol-5-ylthio)-3-cephem-4-carboxylic acid] the MIC [1] was 4 µg/mL (≈ 7.44 µM).
In the case of `COc1ccc(-n2nccc2SC2=C(C(=O)O)N3C(=O)[C@@H](NC(=O)Cc4ccccc4)[C@H]3SC2)cc1` [Cmpd 114, (7R)-7-[(Phenylacetyl)amino]-3-(1-N-(4-methoxyphenyl)pyrazol-5-ylthio)-3-cephem-4-carboxylic acid], the MIC [1] is reported as 4 µg/mL (≈ 7.65 µM).
With `O=C(Cc1cccs1)N[C@@H]1C(=O)N2C(C(=O)O)=C(Sc3ccnn3-c3ccccc3)CS[C@H]12` [Cmpd 116, (7R)-7-[(2-thienylacetyl)amino]-3-(1-N-phenylpyrazol-5-ylthio)-3-cephem-4-carboxylic acid] the MIC [1] was 4 µg/mL (≈ 8.02 µM).
`COc1cccc(-n2nccc2SC2=C(C(=O)O)N3C(=O)[C@@H](NC(=O)Cc4ccccc4)[C@H]3SC2)c1` [Cmpd 117, (7R)-7-[(Phenylacetyl)amino]-3-(1-N-(3-methoxyphenyl)pyrazol-5-ylthio)-3-cephem-4-carboxylic acid] was tested, and the MIC [1] was 8 µg/mL (≈ 15.3 µM).
`Nc1nnc(SCC(=O)N[C@@H]2C(=O)N3C(C(=O)O)=C(Sc4ccnn4-c4ccccc4)CS[C@H]23)s1` [Cmpd 120] showed an MIC [1] of 8 µg/mL (≈ 14.6 µM).
Work on `O=C(O)C1=C(Sc2ccnn2-c2ccccc2)CS[C@@H]2[C@H](NC(=O)C(=NO)c3ccco3)C(=O)N12` [Cmpd 121, (7R)-7-[2-(2-furyl)-2-(hydroxyimino)acetamido]-3-(1-N-phenylpyrazol-5-ylthio)-3-cephem-4-carboxylic acid] yielded an MIC [1] of 4 µg/mL (≈ 7.82 µM).
In the case of `O=C(Cc1ccccc1)N[C@@H]1C(=O)N2C(C(=O)O)=C(Sc3ccnn3-c3ccc(F)cc3)CS[C@H]12` [Cmpd 123, (7R)-7-[(Phenylacetyl)amino]-3-(1-N-(4-fluorophenyl)pyrazol-5-ylthio)-3-cephem-4-carboxylic acid], the MIC [1] is reported as 4 µg/mL (≈ 7.83 µM).
In the case of `N=C(N)SCc1ccccc1SC1=C(C(=O)O)N2C(=O)[C@@H](NC(=O)Cc3ccc(CN)cc3)[C@H]2SC1` [Cmpd 124, (7R)-7-[((4-aminomethylphenyl)acetyl)amino]-3-(2-isothiouroniummethylphenylthio)-3-cephem-4-carboxylate, trifluoroacetic acid salt], the MIC [1] is reported as 4 µg/mL.
Compound `CSCC(=O)N[C@@H]1C(=O)N2C(C(=O)O)=C(Sc3ccccc3CSC(=N)NC(=N)N)CS[C@H]12` [Cmpd 126, (7R)-7-[(methylthioacetyl)amino]-3-(2-(N-amidino)isothiouroniummethylphenylthio)-3-cephem-4-carboxylate, inner salt] has an MIC [1] of 8 µg/mL.
Compound `N=C(N)NCc1ccccc1SC1=C(C(=O)O)N2C(=O)[C@@H](NC(=O)Cc3ccccc3)[C@H]2SC1` [Cmpd 128, (7R)-7-[(Phenylacetyl)amino]-3-(2-guanidiniummethylphenylthio)-3-cephem-4-carboxylate, inner salt] has an MIC [1] of 8 µg/mL.
`O=C(Cc1ccccc1)N[C@@H]1C(=O)N2C(C(=O)O)=C(Sc3ccccc3-n3cccn3)CS[C@H]12` [Cmpd 132, (7R)-7-[(Phenylacetyl)amino]-3-(2-(pyrazol-1-yl)phenylthio)-3-cephem-4-carboxylic acid] gave an MIC [1] of 8 µg/mL (≈ 16.2 µM).
Compound `CSCC(=O)N[C@@H]1C(=O)N2C(C(=O)O)=C(Sc3ccccc3CSC(=N)NN)CS[C@H]12` [Cmpd 133, (7R)-7-[(methylthioacetyl)amino]-3-(2-(N-amino)isothiouroniummethylphenylthio)-3-cephem-4-carboxylate, inner salt] has an MIC [1] of 2 to 4 µg/mL.
`N=C(N)SCc1ccccc1SC1=C(C(=O)O)N2C(=O)[C@@H](NC(=O)CSCCCI)[C@H]2SC1` [Cmpd 134, (7R)-7-[(3-iodoprop-1-ylthioacetyl)amino]-3-(2-isothiouroniummethylphenylthio)-3-cephem-4-carboxylate, inner salt] showed an MIC [1] of 2 µg/mL.
`CSCC(=O)N[C@@H]1C(=O)N2C(C(=O)O)=C(Sc3ccccc3CNC(=N)N)CS[C@H]12` [Cmpd 135, (7R)-7-[(Methylthioacetyl)amino]-3-(2-guanidiniummethylphenylthio)-3-cephem-4-carboxylate, inner salt] gave an MIC [1] of 8 µg/mL.
`N=C(N)SCc1ccccc1SC1=C(C(=O)O)N2C(=O)[C@@H](NC(=O)/C(=N\O)c3ccccc3)[C@H]2SC1` [Cmpd 136, (7R)-7-[(Z)-2-(Phenyl)-2-(hydroxyimino)acetamido]-3-(2-isothiouroniummethylphenylthio)-3-cephem-4-carboxylate, inner salt] gave an MIC [1] of 2 µg/mL.
